According to patent publication US20110178053A1, “AZACARBOLINE DERIVATIVES, PREPARATION METHOD THEREOF AND THERAPEUTIC USE OF SAME” (SANOFI-AVENTIS, priority 2008, published 2011):

Columns and labels:
Pim-1 = target: T1, Pim-1 (Homo sapiens, UniProt P11309); assay: TR-FRET assay, Pim-1 kinase (phosphorylation of Bad Ser112); format: biochemical; conditions: TR-FRET; ATP 40 μM; read-out: IC50 Pim1
T1 construct: His6-labelled recombinant full-length human Pim-1, Pim-2 or Pim-3 protein; His6; made in house
T1 sequence (P11309 whole entry): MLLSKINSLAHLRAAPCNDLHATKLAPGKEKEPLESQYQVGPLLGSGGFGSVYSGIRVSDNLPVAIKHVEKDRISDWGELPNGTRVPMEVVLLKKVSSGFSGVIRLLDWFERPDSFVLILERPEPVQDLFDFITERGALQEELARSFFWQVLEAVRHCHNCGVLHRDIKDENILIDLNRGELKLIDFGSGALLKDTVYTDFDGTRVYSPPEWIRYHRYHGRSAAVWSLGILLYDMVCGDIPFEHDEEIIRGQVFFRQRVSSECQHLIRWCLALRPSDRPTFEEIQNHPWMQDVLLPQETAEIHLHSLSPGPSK
In short: (§1)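 Recombinant His6-tagged full-length human Pim-1, Pim-2 or Pim-3 phosphorylates His6-tagged full-length human Bad at 40 μM ATP (apparent KM). Phospho-Ser112 is detected by TR-FRET between Eu-labelled anti-phosphoBad and APC-labelled anti-His6 (665/615 nm ratio); 10-point duplicate series, top typically 30 μM, IC50 from 4-parameter logistic fit.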

Pim-3 = target: T2, Pim-3 (Homo sapiens, UniProt Q86V86); assay: TR-FRET assay, Pim-3 kinase (phosphorylation of Bad Ser112); format: biochemical; conditions: TR-FRET; ATP 40 μM; read-out: IC50 Pim3
T2 construct: His6-labelled recombinant full-length human Pim-1, Pim-2 or Pim-3 protein; His6; made in house
In short: as §1

MV4-11 = assay: Cell viability assay (CellTiter-Blue), MV4-11; format: cell-based; conditions: Homo sapiens; MV4-11 cells; cell proliferation/viability; read-out: IC50 MV4-11 μM (myeloma)
Excerpt: (§2) The representative compounds of the invention are also screened as regards their effects on cell proliferation and viability using a variety of human tumour cell lines, which are representative of various pathological indications. These cell lines include: • Models of haematological cancers: • TF-1 (acute myelogenic leukaemia; AML M6 at the time of diagnosis); • KG-1 (AML; erythroleukaemia evolving into AML); • KG-1a (AML; sub-clone derived from immature KG-1); • EOL-1 (AML; eosinophilic leukaemia); • PL-21 (AML; M3); • ML-2 (AML; T-NHL evolving into T-ALL evolving into AML M4); • HL-60 (AML, M3); • Kasumi-1 (AML); • GDM-1 (AML); • K-562 (CML—chronic myelogenic leukaemia; blastic crisis); • JURL-MK1 (CML; blastic crisis); • DND-41 (T-ALL—-cell acute lymphoblastic leukaemia); • Jurkat (T-ALL); NALM-6 (B-ALL—B-cell ALL); • CEM (ALL; lymphosarcoma evolving into ALL); • Jeko-1 (B-NHL—B-cell non-Hodgkin lymphoma; mantle-cell lymphoma derived from a variant with large cells as a leukaemic transformation); • WSU-DLCL2 (B-NHL; large B-cell diffuse lymphoma); • RL (B-NHL; undifferentiated diffuse); • OCI-Ly10 (B-NHL); • DoHH-2 (B-NHL); • RPMI-8226 (MM—multiple myeloma); • JVM-2 (B-CLL—B-cell chronic lymphocytic leukaemia); and • JVM-3 (B-CLL) • MV4-11 (AML) • MOLM13 (AML). • Solid tumour models: • HCT-116 (bowel cancer); • HT-29 (bowel cancer); • HC-15 (bowel cancer); • H460 (lung cancer; non-small-cell lung cancer); • A375 (melanoma); • B16F10 (melanoma); • MDA-A1 (breast cancer); • MDA-MB231 (breast cancer); • MDA-MB231 adr (breast cancer); • PANC-1 (pancreatic cancer); and • PC-3 (prostate cancer).
(§3) In order to measure the viability, the tumour cells are incubated in a 96-well or 384-well format for 48, 72 or 96 hours, preferably 72 hours, with a compound of the invention at dilutions of a factor 3 with, in general, nine doses in total, the highest dose being equal to 10 μM or 30 μM. The cell viability is evaluated by adding CellTiter-Blue® (Promega, Madison, Wis., United States) for 4 hours and end-point readings are taken using a SpectraMax Genmini EM (Molecular Devices, Sunnyvale, Calif., United States). The CellTiter-Blue® cell viability assay measures the ability of the cells in culture to reduce resazurin to resorufin, the fluorescence signal intensity being directly proportional to the number of live cells.

KG-1a = assay: Cell viability assay (CellTiter-Blue), KG-1a; format: cell-based; conditions: Homo sapiens; KG-1a cells; cell proliferation/viability; read-out: EC50 KG-1a μM (leukaemia)
Excerpt: as §2, §3

PLK1 = PLK1 (Homo sapiens, UniProt P53350); assay: PLK1 biochemical inhibition
PLK1, sequence (P53350 whole entry, species assumed): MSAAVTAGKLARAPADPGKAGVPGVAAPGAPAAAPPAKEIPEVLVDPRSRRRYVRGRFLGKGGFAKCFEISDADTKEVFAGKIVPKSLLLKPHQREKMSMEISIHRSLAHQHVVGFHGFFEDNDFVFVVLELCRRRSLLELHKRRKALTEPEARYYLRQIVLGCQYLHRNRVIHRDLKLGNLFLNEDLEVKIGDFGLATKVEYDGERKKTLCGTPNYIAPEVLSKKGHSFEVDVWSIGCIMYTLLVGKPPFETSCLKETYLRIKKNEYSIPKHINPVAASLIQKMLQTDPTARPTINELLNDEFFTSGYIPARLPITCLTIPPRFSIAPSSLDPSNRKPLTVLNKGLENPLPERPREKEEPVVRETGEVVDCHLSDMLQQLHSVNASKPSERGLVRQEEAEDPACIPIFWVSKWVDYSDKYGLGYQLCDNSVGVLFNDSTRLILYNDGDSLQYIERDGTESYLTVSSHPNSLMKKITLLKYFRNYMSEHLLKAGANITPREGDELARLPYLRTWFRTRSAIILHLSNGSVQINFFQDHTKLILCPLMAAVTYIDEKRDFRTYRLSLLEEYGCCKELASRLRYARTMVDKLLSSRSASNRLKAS

Pim-2 = target: T3, Pim-2 (Homo sapiens, UniProt Q9P1W9); assay: TR-FRET assay, Pim-2 kinase (phosphorylation of Bad Ser112); format: biochemical; conditions: TR-FRET; ATP 40 μM; read-out: IC50 Pim2
T3 construct: His6-labelled recombinant full-length human Pim-1, Pim-2 or Pim-3 protein; His6; made in house
T3 sequence (Q9P1W9 whole entry): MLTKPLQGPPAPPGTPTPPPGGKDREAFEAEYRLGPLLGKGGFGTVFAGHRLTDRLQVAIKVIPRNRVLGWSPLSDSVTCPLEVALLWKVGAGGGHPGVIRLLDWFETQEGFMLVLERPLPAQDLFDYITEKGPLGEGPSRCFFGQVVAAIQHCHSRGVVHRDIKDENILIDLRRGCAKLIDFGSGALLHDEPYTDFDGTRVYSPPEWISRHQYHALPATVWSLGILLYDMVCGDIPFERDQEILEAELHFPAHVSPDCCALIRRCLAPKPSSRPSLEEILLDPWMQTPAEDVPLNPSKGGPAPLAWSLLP
In short: as §1

EOL-1 = assay: Cell viability assay (CellTiter-Blue), EOL-1; format: cell-based; conditions: Homo sapiens, EOL1, read-out: EC50 EOL-1 μM (lymphoma); EOL-1 cells; cell proliferation/viability
Excerpt: as §2, §3

MOLM-13 = assay: Cell viability assay (CellTiter-Blue), MOLM-13; format: cell-based; conditions: Homo sapiens; MOLM-13 cells; cell proliferation/viability; read-out: IC50 MOLM-13 μM (myeloma)
Excerpt: as §2, §3

B16F10 = assay: Cell viability assay (CellTiter-Blue), B16F10; format: cell-based, human; conditions: Mus musculus, B16-F10; B16F10 cells; cell proliferation/viability; read-out: EC50 B16F10 μM (melanoma)
Procedure: (§4) The representative compounds of the invention are also screened as regards their effects on cell proliferation and viability using a variety of human tumour cell lines, which are representative of various pathological indications. […]
as §3

H460 = assay: Cell viability assay (CellTiter-Blue), H460; format: cell-based; conditions: Homo sapiens, NCI-H460; H460 cells; cell proliferation/viability; read-out: EC50 H460 μM (lung)
Procedure: as §4, §3

PI3K = PI3K biochemical inhibition
HCT116 = assay: Cell viability assay (CellTiter-Blue), HCT116; format: cell-based; conditions: Homo sapiens, HCT-116; HCT116 cells; cell proliferation/viability; read-out: EC50 HCT116 μM (bowel)
Procedure: as §4, §3

IC50 (Pim-1)	IC50 (Pim-3)	IC50 (MV4-11)	IC50 (PLK1)	IC50 (Pim-2)	IC50 (MOLM-13)	EC50 (B16F10)	EC50 (H460)	IC50 (PI3K)	EC50 (HCT116)	Compound	EC50 (KG-1a)	EC50 (EOL-1)
1 to 100 nM	100 to 1000 nM	100 to 1000 nM	> 5000 nM	> 5000 nM						CC(C)(C)OC(=O)c1cnc2[nH]c3cnc(-c4cccnc4)cc3c2c1 [Example 5, 2-methylpropan-2-yl 6-(pyrid-3-yl)-9H-pyrrolo[2,3-b:5,4-c′]dipyridine-3-carboxylate]	0.1 to 1 µM	100 to 1000 nM
1 to 100 nM	1 to 100 nM	100 to 1000 nM	100 to 1000 nM	1000 to 5000 nM						CCCN(C)c1cnc2[nH]c3cnc(-c4cccnc4)cc3c2c1 [Example 10, N-methyl-N-propyl-6-(pyrid-3-yl)-9H-pyrrolo[2,3-b:5,4-c′]dipyrid-3-amine]	0.1 to 1 µM	100 to 1000 nM
1 to 100 nM	1 to 100 nM	100 to 1000 nM	> 5000 nM	100 to 1000 nM						CC(C)(CO)COC(=O)c1cnc2[nH]c3cnc(-c4cccnc4)cc3c2c1 [Example 15, 3-hydroxy-2,2-dimethylpropyl 6-(pyrid-3-yl)-9H-pyrrolo[2,3-b:5,4-c′]-dipyridine-3-carboxylate]	0.1 to 1 µM	100 to 1000 nM

More lines, now with the values behind:

Compound	IC50 (Pim-1)	IC50 (Pim-3)	IC50 (MV4-11)	IC50 (PLK1)	IC50 (Pim-2)	IC50 (MOLM-13)	EC50 (B16F10)	EC50 (H460)	IC50 (PI3K)	EC50 (HCT116)	EC50 (KG-1a)	EC50 (EOL-1)
c1cncc(-c2cc3c(cn2)[nH]c2ncccc23)c1 [Example 1, 6-pyrid-3-yl-9H-pyrrolo[2,3-b:5,4-c′]dipyridine]	1 to 100 nM	100 to 1000 nM	1000 to 5000 nM	100 to 1000 nM	1000 to 5000 nM						1 to 5 µM	1000 to 5000 nM
c1cncc(-c2cc3c(cn2)[nH]c2ncc(N4CCOCC4)cc23)c1 [Example 14, 3-(morpholin-4-yl)-6-(pyrid-3-yl)-9H-pyrrolo[2,3-b:5,4-c′]dipyridine]	1 to 100 nM	1 to 100 nM	100 to 1000 nM	> 5000 nM	1000 to 5000 nM						1 to 5 µM	100 to 1000 nM
CS(=O)(=O)Nc1ccc(-c2c(F)cnc3[nH]c4cnc(-c5cccnc5)cc4c23)cc1 [Example 22, N-[4-(3-Fluoro-6-(pyrid-3-yl)-9H-pyrrolo[2,3-b:5,4-c′]dipyrid-4-yl)-phenyl]methanesulfon-amide]	1 to 100 nM	1 to 100 nM	1 to 100 nM	1 to 100 nM	100 to 1000 nM	1 to 100 nM	1 to 100 nM	1 to 100 nM	100 to 1000 nM	1 to 100 nM		1 to 100 nM
Cn1cc(-c2cc3c(cn2)[nH]c2ncccc23)cn1 [Example 39, 6-(1-Methyl-1H-pyrazol-4-yl)-9H-pyrrolo[2,3-b:5,4-c′]dipyridine]	1 to 100 nM	100 to 1000 nM	1000 to 5000 nM	1000 to 5000 nM	1000 to 5000 nM	1000 to 5000 nM					0.1 to 1 µM	100 to 1000 nM
COc1cnc2[nH]c3cnc(-c4cccnc4)cc3c2c1-c1ccc(NS(C)(=O)=O)cc1 [Example 44, N-[4-(3-methoxy-6-(pyrid-3-yl)-9H-pyrrolo[2,3-b:5,4-c′]dipyrid-4-yl)phenyl]methane-sulfonamide]	1 to 100 nM	1 to 100 nM	1 to 100 nM	1 to 100 nM	1 to 100 nM	1 to 100 nM			1 to 100 nM			1 to 100 nM
